From publication PMC9505067, “Synthesis of Hydantoin Androgen Receptor Antagonists and Study on Their Antagonistic Activity” (Molecules, 2022)
Where two headings read alike, the source gives them in different places.

Tests used:
[1] = target: T1, androgen receptor (AR) (Homo sapiens, UniProt P10275); experiment: AR antagonist luciferase gene reporter assay (AR plasmid pSVAR0 + MMTV-Luc, DHT at EC80)
T1 sequence (P10275 1-920): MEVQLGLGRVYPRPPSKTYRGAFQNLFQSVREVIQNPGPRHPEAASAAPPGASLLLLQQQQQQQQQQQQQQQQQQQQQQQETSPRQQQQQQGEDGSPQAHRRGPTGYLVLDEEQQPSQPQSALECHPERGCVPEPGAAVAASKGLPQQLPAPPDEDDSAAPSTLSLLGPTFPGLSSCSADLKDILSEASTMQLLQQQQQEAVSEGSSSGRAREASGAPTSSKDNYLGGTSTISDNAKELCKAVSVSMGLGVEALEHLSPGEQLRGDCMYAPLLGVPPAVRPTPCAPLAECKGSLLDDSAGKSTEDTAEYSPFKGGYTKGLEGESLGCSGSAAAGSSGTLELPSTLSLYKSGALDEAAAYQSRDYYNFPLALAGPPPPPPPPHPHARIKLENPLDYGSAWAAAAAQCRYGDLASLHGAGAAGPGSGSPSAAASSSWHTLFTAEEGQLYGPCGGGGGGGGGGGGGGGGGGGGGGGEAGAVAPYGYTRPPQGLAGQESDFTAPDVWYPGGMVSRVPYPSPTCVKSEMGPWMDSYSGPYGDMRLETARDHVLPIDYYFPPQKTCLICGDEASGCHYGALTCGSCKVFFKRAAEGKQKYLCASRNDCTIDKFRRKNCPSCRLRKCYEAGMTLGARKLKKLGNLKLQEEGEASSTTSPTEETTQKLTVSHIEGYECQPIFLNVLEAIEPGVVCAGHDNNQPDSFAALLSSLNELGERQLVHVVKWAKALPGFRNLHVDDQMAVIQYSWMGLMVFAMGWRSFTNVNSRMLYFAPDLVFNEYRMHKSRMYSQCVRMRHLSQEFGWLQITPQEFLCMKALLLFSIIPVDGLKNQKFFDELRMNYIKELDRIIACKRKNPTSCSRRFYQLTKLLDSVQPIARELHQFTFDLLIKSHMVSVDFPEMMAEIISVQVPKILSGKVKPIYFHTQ

[2] = Antagonist Activity in CV-1 IC50, luciferase reporter in AR-transfected cells, DHT at EC80, 24 h incubation, means ± SD of three independent experiments

| Structure (SMILES) | melting point | Antagonist Activity in CV-1 Efficacy [1] | IC50 [1, 2] | IC50 [1] | Antagonist Activity in CV-1 Efficacy ([1]; luciferase reporter in AR-transfected cells, DHT at EC80, 24 h, enzalutamide = 100, means ± SD of three independent experiments) |
| --- | --- | --- | --- | --- | --- |
| Cc1ccc(N2C(=S)N(c3ccc(C#N)c(C(F)(F)F)c3)C(=O)C2(C)CO)cc1 (stereo not drawn) [6b, 4-(4-(hydroxymethyl)-4-methyl-5-oxo-2-thioxo-3-(p-tolyl)imidazolidin-1-yl)-2-(trifluoromethyl)benzonitrile] | 190 to 192 °C | 86 ± 4.2% | 549 ± 47.8 nM |  |  |
| CC1(CO)C(=O)N(c2ccc(C#N)c(C(F)(F)F)c2)C(=S)N1c1ccc(Cl)cc1 (stereo not drawn) [6d, 4-(3-(4-chlorophenyl)-4-(hydroxymethyl)-4-methyl-5-oxo-2-thioxoimidazolidin-1-yl)-2-(trifluoromethyl)benzonitrile] | 205 to 207 °C | 96 ± 3.8% | 79.3 ± 13.2 nM |  |  |
| CC1(CO)C(=O)N(c2ccc(C#N)c(C(F)(F)F)c2)C(=S)N1c1ccc(Br)cc1 (stereo not drawn) [6e, 4-(3-(4-bromophenyl)-4-(hydroxymethyl)-4-methyl-5-oxo-2-thioxoimidazolidin-1-yl)-2-(trifluoromethyl)benzonitrile] | 206 to 208 °C | 86 ± 6.5% | 117 ± 16.3 nM |  |  |
| COc1ccc(N2C(=S)N(c3ccc(C#N)c(C(F)(F)F)c3)C(=O)C2(C)CO)cc1 (stereo not drawn) [6f, 4-(4-(hydroxymethyl)-3-(4-methoxyphenyl)-4-methyl-5-oxo-2-thioxoimidazolidin-1-yl)-2-(trifluoromethyl)benzonitrile] | 183 to 185 °C | 89 ± 3.7% | 286 ± 29.5 nM |  |  |
| CC1(CO)C(=O)N(c2ccc(C#N)c(C(F)(F)F)c2)C(=S)N1c1ccc(C#N)cc1 (stereo not drawn) [6g, 4-(3-(4-cyanophenyl)-4-(hydroxymethyl)-4-methyl-5-oxo-2-thioxoimidazolidin-1-yl)-2-(trifluoromethyl)benzonitrile] | 234 to 236 °C | 102 ± 15.5% | 338 ± 44.7 nM |  |  |
| CC1(CO)C(=O)N(c2ccc(C#N)c(C(F)(F)F)c2)C(=S)N1c1ccc([N+](=O)[O-])cc1 (stereo not drawn) [6h, 4-(4-(hydroxymethyl)-4-methyl-3-(4-nitrophenyl)-5-oxo-2-thioxoimidazolidin-1-yl)-2-(trifluoromethyl)benzonitrile] | 206 to 208 °C |  | 79600 nM |  |  |
| CC1(CO)C(=O)N(c2ccc(C#N)c(C(F)(F)F)c2)C(=S)N1c1ccc(C(F)(F)F)cc1 (stereo not drawn) [6i, 4-(4-(hydroxymethyl)-4-methyl-5-oxo-2-thioxo-3-(4-(trifluoromethyl)phenyl)imidazolidin-1-yl)-2-(trifluoromethyl)benzonitrile] | 178 to 180 °C | 102 ± 8.9% | 68.2 ± 4.6 nM |  |  |
| COC(=O)c1ccc(N2C(=S)N(c3ccc(C#N)c(C(F)(F)F)c3)C(=O)C2(C)CO)cc1 (stereo not drawn) [6j, methyl 4-(3-(4-cyano-3-(trifluoromethyl)phenyl)-5-(hydroxymethyl)-5-methyl-4-oxo-2-thioxoimidazolidin-1-yl)benzoate] | 168 to 170 °C | 95 ± 4.2% | 532 ± 58.2 nM |  |  |
| CNC(=O)c1ccc(N2C(=S)N(c3ccc(C#N)c(C(F)(F)F)c3)C(=O)C2(C)CO)cc1F (stereo not drawn) [6k, 4-(3-(4-cyano-3-(trifluoromethyl)phenyl)-5-(hydroxymethyl)-5-methyl-4-oxo-2-thioxoimidazolidin-1-yl)-2-fluoro-N-methylbenzamide] |  | 88 ± 3.5% | 126 nM |  |  |
| CN1CCC(Oc2ccc(N3C(=S)N(c4ccc(C#N)c(C(F)(F)F)c4)C(=O)C3(C)CO)cc2)CC1 (stereo not drawn) [6l, 4-(4-(hydroxymethyl)-4-methyl-3-(4-((1-methylpiperidin-4-yl)oxy)phenyl)-5-oxo-2-thioxoimidazolidin-1-yl)-2-(trifluoromethyl)benzonitrile] | 117 to 119 °C | 92 ± 2.9% | 337 nM |  |  |
| CC1(CO)C(=O)N(c2ccc(C#N)c(C(F)(F)F)c2)C(=O)N1c1ccccc1 (stereo not drawn) [7a, 4-(4-(hydroxymethyl)-4-methyl-2,5-dioxo-3-phenylimidazolidin-1-yl)-2-(trifluoromethyl)benzonitrile] | 187 to 189 °C | 101 ± 15.1% | 94.8 ± 12.8 nM |  |  |
| Cc1ccc(N2C(=O)N(c3ccc(C#N)c(C(F)(F)F)c3)C(=O)C2(C)CO)cc1 (stereo not drawn) [7b, 4-(4-(hydroxymethyl)-4-methyl-2,5-dioxo-3-(p-tolyl)imidazolidin-1-yl)-2-(trifluoromethyl)benzonitrile] | 156 to 158 °C | 95 ± 12.3% | 115 ± 17.6 nM |  |  |
| CC1(CO)C(=O)N(c2ccc(C#N)c(C(F)(F)F)c2)C(=O)N1c1ccc(F)cc1 (stereo not drawn) [7c, 4-(3-(4-fluorophenyl)-4-(hydroxymethyl)-4-methyl-2,5-dioxoimidazolidin-1-yl)-2-(trifluoromethyl)benzonitrile] | 208 to 210 °C | 94 ± 14.6% | 67.3 ± 15.5 nM |  |  |
| CC1(CO)C(=O)N(c2ccc(C#N)c(C(F)(F)F)c2)C(=O)N1c1ccc(Cl)cc1 (stereo not drawn) [7d, 4-(3-(4-chlorophenyl)-4-(hydroxymethyl)-4-methyl-2,5-dioxoimidazolidin-1-yl)-2-(trifluoromethyl)benzonitrile] | 152 to 154 °C | 94 ± 9.7% | 68.6 ± 22.4 nM |  |  |
| CC1(CO)C(=O)N(c2ccc(C#N)c(C(F)(F)F)c2)C(=O)N1c1ccc(Br)cc1 (stereo not drawn) [7e, 4-(3-(4-bromophenyl)-4-(hydroxymethyl)-4-methyl-2,5-dioxoimidazolidin-1-yl)-2-(trifluoromethyl)benzonitrile] | 102 to 104 °C | 95 ± 11.2% | 84.2 ± 37.1 nM |  |  |
| COc1ccc(N2C(=O)N(c3ccc(C#N)c(C(F)(F)F)c3)C(=O)C2(C)CO)cc1 (stereo not drawn) [7f, 4-(4-(hydroxymethyl)-3-(4-methoxyphenyl)-4-methyl-2,5-dioxoimidazolidin-1-yl)-2-(trifluoromethyl)benzonitrile] | 128 to 130 °C | 90 ± 13.3% | 416 ± 230 nM |  |  |
| CC1(CO)C(=O)N(c2ccc(C#N)c(C(F)(F)F)c2)C(=O)N1c1ccc(C#N)cc1 (stereo not drawn) [7g, 4-(3-(4-cyanophenyl)-4-(hydroxymethyl)-4-methyl-2,5-dioxoimidazolidin-1-yl)-2-(trifluoromethyl)benzonitrile] |  | 98 ± 11.6% | 61 ± 6.1 nM |  |  |
| CC1(CO)C(=O)N(c2ccc(C#N)c(C(F)(F)F)c2)C(=O)N1c1ccc([N+](=O)[O-])cc1 (stereo not drawn) [7h, 4-(4-(hydroxymethyl)-4-methyl-3-(4-nitrophenyl)-2,5-dioxoimidazolidin-1-yl)-2-(trifluoromethyl)benzonitrile] | 160 to 162 °C | 93 ± 9.3% | 48.9 ± 12.7 nM |  |  |
| CC1(CO)C(=O)N(c2ccc(C#N)c(C(F)(F)F)c2)C(=O)N1c1ccc(C(F)(F)F)cc1 (stereo not drawn) [7i, 4-(4-(hydroxymethyl)-4-methyl-2,5-dioxo-3-(4-(trifluoromethyl)phenyl)imidazolidin-1-yl)-2-(trifluoromethyl)benzonitrile] | 161 to 163 °C | 99 ± 12.5% | 149 ± 30.4 nM |  |  |
| COC(=O)c1ccc(N2C(=O)N(c3ccc(C#N)c(C(F)(F)F)c3)C(=O)C2(C)CO)cc1 (stereo not drawn) [7j, methyl 4-(3-(4-cyano-3-(trifluoromethyl)phenyl)-5-(hydroxymethyl)-5-methyl-2,4-dioxoimidazolidin-1-yl)benzoate] | 139 to 141 °C | 96 ± 10.8% | 139 ± 36.2 nM |  |  |
| CC1(CO)C(=O)N(c2ccc(C#N)c(C(F)(F)F)c2)C(=S)N1c1ccc(O)cc1 (stereo not drawn) [11a, 4-(4-(hydroxymethyl)-3-(4-hydroxyphenyl)-4-methyl-5-oxo-2-thioxoimidazolidin-1-yl)-2-(trifluoromethyl)benzonitrile] | 203 to 205 °C | 90 ± 7.5% | 3640 ± 932 nM |  |  |
| CC1(CO)C(=O)N(c2ccc(C#N)c(C(F)(F)F)c2)C(=O)N1c1ccc(O)cc1 (stereo not drawn) [11b, 4-(4-(hydroxymethyl)-3-(4-hydroxyphenyl)-4-methyl-2,5-dioxoimidazolidin-1-yl)-2-(trifluoromethyl)benzonitrile] | 110 to 112 °C | 100 ± 3.4% | 2360 ± 1710 nM |  |  |
| CNC(=O)c1ccc(N2C(=S)N(c3cnc(C#N)c(C(F)(F)F)c3)C(=O)C2(C)CO)cc1F (stereo not drawn) [19c, 4-(3-(6-cyano-5-(trifluoromethyl)pyridin-3-yl)-5-(hydroxymethyl)-5-methyl-4-oxo-2-thioxoimidazolidin-1-yl)-2-fluoro-N-methylbenzamide] | 127 to 129 °C |  |  | 903 ± 602 nM | 55.46 ± 14.74% |
